The source of these data is patent US20130295100A1, “MARKERS FOR ACUTE KIDNEY INJURY AND USES THEREOF” (OSPEDALE SAN RAFFAELE S.R.L., priority 2010, published 2013).

A value given as a limit tells only on which side of the number the result lay.

In one data set the test system is ouabain antiserum. The note with it: radioimmunoassay for endogenous ouabain, as previously described; cited from earlier work.
The subject of data set [1] is normotensive Sprague-Dawley rats. The data set is described as follows: Chronic subcutaneous ouabain infusion in rats (OHR): blood pressure and renal function. The class given is in vivo, rat. The note with it: 8 weeks. As to the method:
Care and husbandry of rats complied with the European Directives No. 86/609 and with the Italian Law (DL116, Jan. 27, 1992). The authorization for animal use in Prassis Sigma-Tau laboratories was obtained from the Italian Health Authority. Ouabain hypertensive rats (OHR) were obtained by subcutaneous ouabain infusion (Sprague-Dawley rats, 15 μg/kg/day ouabain from Sigma-Aldrich, n=7) with osmotic mini-pumps for 8 weeks as described.^1,2 Normotensive control rats received sterile saline (n=7). Systolic blood pressure and heart rate were recorded weekly in conscious rats by tail-cuff plethysmography.
Rats were housed in single metabolic cages and 24 h-urine samples were collected and analyzed for total protein and creatinine excretion (kits from Sentinel Diagnostics, Milan, Italy) as described in Doi M, et al.^29 At sacrifice, rat plasma was collected for creatinine determination.

In data set [2] the test system is nephrin, synaptopodin (podocyte proteins). The data set is described as follows: Immunofluorescence of podocyte proteins in kidney sections of ouabain-infused rats. The note with it: OHR vs control rats. The class given is in vivo, rat. As to the method: Immunofluorescence was performed on rat kidney sections by using anti-nephrin and anti-synaptopodin antibodies as described.^30

Data set [3] shares this test system. The data set is described as follows: Western blot of renal microsomes from ouabain-infused rats. The note with it: OHR vs control rats. The data set is classed as in vivo, rat. As to the method: Renal microsomes were prepared from ouabain-infused rats and saline controls as described^30 and analyzed by Western blotting.
(§1) Samples were analyzed by Western blotting using specific antibodies against podocyte markers, such as nephrin (Santa Cruz Biotechnology), podocin (Sigma-Aldrich), synaptopodin (Progen Biotechnik), ZO-1 (Invitrogen) as described in Ferrandi M, et al (J Mol Med 2010; 88:203-217).^30 Actin (Sigma-Aldrich) was used for normalization.
On the technique in general: In western blotting, separated proteins are transferred to a membrane and probed.

The test system of data set [4] is glomerular podocytes (nephrin, synaptopodin expression). Put plainly: Western blot of cultured rat glomerular podocytes incubated with ouabain. The class given is cell-based. The note with it: 10^−9 M ouabain for 4 days, vs control group. As to the method: Kidneys were taken from 7-10 day-old rats and glomerular podocytes were isolated and cultured as described.^30 Cell characterization was performed using markers of podocytes (nephrin, podocin, synaptopodin), epithelial (cytokeratin), smooth muscle (a-SMC) and endothelial cells (CD31). Podocytes were incubated in the absence or presence of 10^−9 M ouabain for 4 days and analyzed by Western blotting.
as §1

The test system of a further data set is hypertension in patients. The note with it: reference 34; cited from earlier work.
Where [5] appears, read: ouabain 15 μg/kg/day s.c., OHR vs saline controls, p<0.05.

In the case of `C[C@H]1O[C@@H](O[C@H]2[C@@H](O)C[C@H](O[C@H]3[C@@H](O)C[C@H](O[C@H]4CC[C@@]5(C)[C@H](CC[C@@H]6[C@@H]5C[C@@H](O)[C@]5(C)[C@@H](C7=CC(=O)OC7)CC[C@]65O)C4)O[C@@H]3C)O[C@@H]2C)C[C@H](O)[C@@H]1O` [digoxin], the “cross-reactivity of ouabain antiserum” value with ouabain antiserum is given as “approximately 0.42%”.
On to `C[C@@H]1O[C@@H](O[C@H]2C[C@@H](O)[C@]3(CO)[C@H]4[C@H](O)C[C@]5(C)[C@@H](C6=CC(=O)OC6)CC[C@]5(O)[C@@H]4CC[C@]3(O)C2)[C@H](O)[C@H](O)[C@H]1O` [ouabain], for which, in data set [1] (ouabain 15 μg/kg/day s.c. by osmotic mini-pump, OHR vs saline controls, n=7), the “systolic blood pressure (SBP)” value is “significantly raised”. The urinary creatinine in data set [1] (ouabain 15 μg/kg/day s.c., 24 h urine, OHR) is on record as 33.8±1.4 mg/24 h. Also, the “reduction of creatinine clearance vs controls” value in data set [1] (ouabain 15 μg/kg/day s.c., OHR vs saline controls, p<0.02) is given as −18%. In data set [1] (setting [5]), the “increase of plasma creatinine vs controls” value is listed as “+14%” and the “urinary protein excretion, change vs controls” value is recorded as “+54%”. Besides, in data set [2] (data not shown), the “synaptopodin staining in kidney sections” value is recorded as “but not for synaptopodin”. The “nephrin staining in kidney sections” value in data set [2] (three rats per group) is given as “significant reduction of staining”. Further, the “nephrin expression in renal microsomes, normalized for actin” value in data set [3] is given as “reduced expression”. Further, the “synaptopodin expression in renal microsomes” value in data set [3] (data not shown) is reported as “but not of synaptopodin”. For the same compound, the “nephrin expression in podocytes, normalized for actin” value in data set [4] is on record as “decreased expression”.
Regarding `C[C@]12CC[C@H](O)C[C@H]1CC[C@@H]1[C@@H]2CC[C@]2(C)[C@@](O)(c3ccoc3)CC[C@]12O` [rostafuroxin], in the data set with hypertension in patients, the “antihypertensive activity in patients” value was “has been shown to have antihypertensive activity”.
With `CC(=O)S[C@@H]1CC2=CC(=O)CC[C@]2(C)[C@H]2CC[C@@]3(C)[C@@H](CC[C@@]34CCC(=O)O4)[C@H]12` [spironolactone], in the data set with ouabain antiserum, the “cross-reactivity of ouabain antiserum” value is listed as < 0.01%.
